Source: US20190151266A1, “PHARMACEUTICAL COMPOSITION FOR TREATING OR PREVENTING BURN INJURIES” (priority 2016, published 2019)

Legend:
TRPV ion channels = assay: TRPV ion channel activity: 2-APB-induced intracellular calcium change in nociceptive sensory cells (Fluo-4-AM); format: cell-based, white rats
Procedure: After fl 1 nociceptive sensory cell lines in white rats incubated with the compound of Formula 1 for 24 hours were pretreated, TRPV ion channel activities were measured. The fl 1 cell lines were treated with 2-APB (2-aminoethoxydiphenyl borate) as a pre-activator for TRPV ion channels, and intracellular calcium changes, which are triggered in response to the 2-APB treatment, were evaluated using a Fluo-4-AM fluorescent dye on a real time basis.

f11 neuron cell lines = assay: Inhibitory efficacy of fibroblast cell proliferation; format: cell-based; conditions: f11 neuron cell lines treated for 72 hours; compared to control groups; FIG. 10
Procedure: After f11 neuron cell lines were treated with the compound of Formula 1 for 72 hours, the extents of cell differentiation were first compared/evaluated (see FIG. 10). […] Since fibroblast cell proliferation accompanies excessive collagen synthesis to make up for the dermis damaged by skin injury, scars can be left even after the damage recovery. Therefore, scar prevent or treating efficacy can be exerted by inhibiting the fibroblast proliferation.

SMILES | increase in the intracellular calcium level induced by 2-APB (TRPV ion channels; fl 1 cell lines pre-treated with the compound for 24 hours, FIG. 9) | fibroblast cell proliferation and differentiation inhibitory efficacy (f11 neuron cell lines) | intracellular calcium level after treatment with TRPV pre-activator (TRPV ion channels; fl 1 cell lines, transient within 20 seconds, reverted to base level in about 5 minutes)
CC(C)c1ccc2c(c1)C=C[C@H]1[C@](C)(C(=O)O)CCC[C@]21C [Formula 1, abieta-6,8,11,13-tetraaen-18-oic acid] | strongly inhibited | improved fibroblast cell proliferation and differentiation inhibitory efficacy | –
NCCOB(c1ccccc1)c1ccccc1 [Formula 2-APB, 2-aminoethoxydiphenyl borate, reference compound] | – | – | sharp increase in the intracellular calcium level
